Earlier results in patent US20250143325A1, “PLANT-BASED INSECT REPELLENT AND USES THEREOF” (PIC Corporation, priority 2023, published 2025).

Assays:
[1] = test system: storage food mite, Tyrophagus putrescentiae; conditions: impregnated fabric disc bioassay against Tyrophagus putrescentiae
[2] = test system: Periplaneta americana (the American Cockroach) and Blaberus discoidalis (discoids)

Structure (SMILES)	50% lethal dose value [1] [g/mL]	concentration abolishing spontaneous foregut contractions (together with response to electrical stimulation) ([2]; foregut) [mM]	threshold for increased spontaneous firing (abdominal nerve cord) ([2]; lower doses, impulses recorded extracellularly) [µM]
O=C(OCc1ccccc1)c1ccccc1 [benzyl benzoate]	1.27		
CC(C)=CCC/C(C)=C/CO [geraniol]	1.95	2	250
